Results reported in BindingDB's records for patent US20250214965 (Hangzhou Innogate Pharma, 2025).

Target: T1, Kinesin-like protein KIF18A (Homo sapiens, UniProt Q8NI77)
T1 sequence (Q8NI77 whole entry): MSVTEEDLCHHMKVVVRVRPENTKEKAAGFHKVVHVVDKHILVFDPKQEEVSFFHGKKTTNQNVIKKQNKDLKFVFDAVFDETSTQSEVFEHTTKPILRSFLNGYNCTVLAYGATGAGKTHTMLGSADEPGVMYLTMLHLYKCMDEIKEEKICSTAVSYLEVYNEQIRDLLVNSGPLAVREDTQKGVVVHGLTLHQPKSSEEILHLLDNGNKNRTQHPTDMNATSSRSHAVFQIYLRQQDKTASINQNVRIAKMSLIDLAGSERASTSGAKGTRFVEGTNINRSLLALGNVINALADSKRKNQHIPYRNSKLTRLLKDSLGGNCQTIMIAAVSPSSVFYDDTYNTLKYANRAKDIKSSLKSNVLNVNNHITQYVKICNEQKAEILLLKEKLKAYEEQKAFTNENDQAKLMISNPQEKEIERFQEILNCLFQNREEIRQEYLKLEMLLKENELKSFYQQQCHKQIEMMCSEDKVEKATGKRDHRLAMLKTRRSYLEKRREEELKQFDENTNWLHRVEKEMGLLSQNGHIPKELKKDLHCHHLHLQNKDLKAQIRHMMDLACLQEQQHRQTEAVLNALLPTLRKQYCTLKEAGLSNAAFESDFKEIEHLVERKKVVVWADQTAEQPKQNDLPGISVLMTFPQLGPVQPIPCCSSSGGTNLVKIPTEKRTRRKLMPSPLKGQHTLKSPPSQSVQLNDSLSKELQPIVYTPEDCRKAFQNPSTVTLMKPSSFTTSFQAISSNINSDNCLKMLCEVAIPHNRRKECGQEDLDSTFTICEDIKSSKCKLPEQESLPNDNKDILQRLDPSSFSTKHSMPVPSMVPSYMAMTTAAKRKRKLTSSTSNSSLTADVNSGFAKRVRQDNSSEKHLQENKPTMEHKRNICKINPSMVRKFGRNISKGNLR
Experiment: Inhibition of KIF18A Enzyme Activity
Procedure: The ADP-Glo method was used to test the enzymatic activity of KIF18A. The compound was diluted 3-fold with DMSO at a starting concentration of 3000 nM, for a total of ten concentrations, and tested in duplicate. Echo was used to transfer 25 nL of the diluted compound to a 384-well plate, and 2.5 μL of enzyme working solution was added. Plate was centrifuged at 1000 rpm for 1 min, and incubated at 25° C. for 10 min. 2.5 μL of ATP and substrate solution was added to start the reaction, and plate was incubated at 25° C. for 60 min. 4 μL of ADP-Glo solution was added to the 384-well plate, and plate was incubated at 25° C. for 40 min. 8 μL of detection solution was added and incubated at 25° C. for 40 min, and BMG was used to read the […] value. Inhibition rate was calculate according to the following formula: Inhibition rate (%)=(DMSO well−compound well)/(DMSO well−blank control well)×100%. The IC50 value of each compound was analyzed using the nonlinear regression method of XLFit 5.5.0 software. The formula is: Y=Bottom+(Top−Bottom)/(1+10^((Log IC50−X)*HillSlope)).

Row | IC50 [µM] | SMILES
1 | < 0.05 | Cc1cc(NC(=O)c2ccc(NS(=O)(=O)[C@H](C)CO)cc2N2CCC(=C(F)F)CC2)nc(N2CCC(F)(F)CC2)n1 [US20250214965, Compound 68]
2 | < 0.1 | Cc1cc(NC(=O)c2ccc(NS(=O)(=O)[C@@H](C)CO)cc2N2CCC(=C(F)F)CC2)nc(N2CCC(F)(F)CC2)n1 [US20250214965, Compound 69]

Continued, compound first:

Row | SMILES | IC50 [µM]
3 | Cc1cc(NC(=O)c2ccc(NS(=O)(=O)CCO)cc2N2CCC3(CC2)CC3)nc(N2CCC(F)(F)CC2)c1F [US20250214965, Compound 85] | < 0.05
4 | Cc1cc(NC(=O)c2ccc(NS(=O)(=O)CCO)cc2N2CCC(=C(F)F)CC2)nc(N2CCC(F)(F)CC2)c1F [US20250214965, Compound 79] | < 0.05
5 | Cc1cc(NC(=O)c2ccc(NS(=O)(=O)[C@H](C)CO)cc2N2CCC(=C(F)F)CC2)nc(N2CCC(F)(F)CC2)c1 [US20250214965, Compound 82] | < 0.05
